This is an account of results in BindingDB's records for doi:10.1016/j.bmcl.2014.06.082 (Friedrich Alexander University, 2014).

The assay addresses T1, G protein-coupled receptor (Human cytomegalovirus, UniProt Q9IP65).
T1 sequence (Q9IP65 whole entry): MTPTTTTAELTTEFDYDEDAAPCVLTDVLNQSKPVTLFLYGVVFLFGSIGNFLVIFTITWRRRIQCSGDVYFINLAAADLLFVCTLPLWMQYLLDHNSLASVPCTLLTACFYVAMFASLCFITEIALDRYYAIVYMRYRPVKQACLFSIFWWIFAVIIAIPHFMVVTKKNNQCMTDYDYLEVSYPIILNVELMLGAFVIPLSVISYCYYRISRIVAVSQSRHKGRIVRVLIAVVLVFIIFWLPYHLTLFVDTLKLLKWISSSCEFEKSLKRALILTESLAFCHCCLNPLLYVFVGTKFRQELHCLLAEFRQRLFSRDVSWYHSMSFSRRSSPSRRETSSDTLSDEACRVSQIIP
Description: Allosteric modulatory activity at FLAG-tagged human cytomegalovirus US28 receptor delta300 mutant expressed in HEK293T cells by PathDetectElk1 assay.

In turn, `CCCCCCCCCC(=O)N(CCN(C)C)CC1(C)Cc2ccccc2C(=O)N1` (configuration not stated) gave an EC50 below 10 µM.

For `N#CC(CCCN1CCC(O)(c2ccc(Cl)cc2)CC1)(c1ccccc1)c1ccccc1` [5-[4-(4-Chloro-phenyl)-4-hydroxy-piperidin-1-yl]-2,2-diphenyl-pentanenitrile], the EC50 is below 10 µM.

One may read the EC50 as the concentration giving half of the maximal effect. The low end stands for higher potency in that assay, the high end for lower potency in that assay.
